From article PMC9157009, “Protein proximity networks and functional evaluation of the casein kinase 1 gamma family reveal unique roles for CK1γ3 in WNT signaling” (The Journal of Biological Chemistry, 2022)
“And” between values parts separate entries of the source, which are not always exact repeats. Identical values can stand only once.

Key:
CK1γ3 = target: T1, CK1γ3 (Homo sapiens, UniProt Q9Y6M4); test: Eurofins kinase enzymatic radiometric assay, CK1γ3; format: biochemical; details: Km = ATP, 9-pt curve in duplicate
T1 construct: purchased Eurofins
Text: Details related to the substrate used, protein constructs, controls, and assay protocol for each kinase assay are included on the Eurofins website: https://www.eurofinsdiscoveryservices.com/.

GSK3β = target: T2, GSK3β (Homo sapiens, UniProt P49841); test: scanMAX binding assay, GSK3β; details: Percent of Control; legend and method: 1 μM
T2 construct: purchased Eurofins DiscoverX Corporation
Text: (§1) As described previously, this commercial assay platform screens against 403 WT human kinases in binding assays and provides PoC values ([73]).

CK1γ2 = target: T3, CK1γ2 (Homo sapiens, UniProt P78368); test: scanMAX binding assay, CK1γ2; details: Percent of Control; legend and method: 1 μM; read-out: CK1γ2 PoC @ 1 µM
T3 construct: purchased Eurofins
Text: as §1

DYRK1A = target: T4, DYRK1A (Homo sapiens, UniProt Q13627); test: scanMAX binding assay, DYRK1A; details: Percent of Control; legend and method: 1 μM; read-out: DYRK1A PoC @ 1mM
T4 construct: purchased Eurofins DiscoverX Corporation
Text: as §1

IRAK1 = target: T5, IRAK1 (Homo sapiens, UniProt P51617); test: scanMAX binding assay, IRAK1; details: Percent of Control; legend and method: 1 μM; read-out: IRAK1 PoC @ 1 µM
T5 construct: purchased Eurofins DiscoverX Corporation
Text: as §1

CSNK1A1 = CSNK1A1 (Homo sapiens, UniProt P48729); test: scanMAX binding assay, CSNK1A1; details: Percent of Control; legend and method: 1 μM; read-out: CSNK1A1 PoC @ 1 µM
Text: as §1

ADCK3 = target: T6, ADCK3 (Homo sapiens, UniProt Q8NI60); test: scanMAX binding assay, ADCK3; details: Percent of Control; legend and method: 1 μM; read-out: ADCK3 PoC @ 1 µM
T6 construct: purchased Eurofins DiscoverX Corporation (scanMAX)
Text: as §1

CSNK1A1L = CSNK1A1L (Homo sapiens, UniProt Q8N752); test: scanMAX binding assay, CSNK1A1L; details: Percent of Control; legend and method: 1 μM; read-out: CSNK1A1L PoC @ 1 µM
Text: as §1

CK1γ2 (NLuc-CK1γ2) = target: T7, CK1γ2 (NLuc-CK1γ2) (Homo sapiens, UniProt P78368); test: NanoBRET cellular target engagement assay, NLuc-CK1γ2 in HEK293T cells; format: cell-based; details: live HEK293T cells, 0.5 μM tracer K-10; read-out: NL-CK1γ2 NanoBRET IC50
T7 construct: host or cells: HEK293T
Protocol: (§2) HEK293T cells (hypotriploid, fetal) were purchased from ATCC. These cells were grown in Dulbecco’s modified Eagle’s medium (Gibco) supplemented with 10% (v/v) fetal bovine serum (Corning). They were incubated in 5% CO2 at 37 °C and passaged every 72 h with trypsin and not allowed to reach confluency. Constructs for NanoBRET measurements of CK1γ2 (NLuc-CK1γ2) and GSK3β (NLuc-GSK3β) were kindly provided by Promega. NanoBRET assays were carried out as described previously ([74]). Preferred NLuc orientations, both N-terminal in this case, are indicated in parentheses after each construct. Assays were carried out in dose–response as described by the manufacturer using 0.5 μM of tracer K-10 for CK1γ2 and 0.063 μM of tracer K-8 for GSK3β. Two biological replicates were executed with two technical replicates to produce the graphs with error bars shown in Figures 6E, 7E, 8, A and B. Tracer titration curves for these kinases that motivated our tracer selection and working concentration can be found on the Promega website.

GSK3β (NLuc-GSK3β) = target: T8, GSK3β (NLuc-GSK3β) (Homo sapiens, UniProt P49841); test: NanoBRET cellular target engagement assay, NLuc-GSK3β in HEK293T cells; format: cell-based; details: live HEK293T cells, 0.063 μM tracer K-8; read-out: GSK3β NanoBRET assay, inactive up to
T8 construct: host or cells: HEK293T
Protocol: as §2

β-catenin = test: W. blot of β-catenin stabilization after WNT3A in RKO cells; format: cell-based, human; details: RKO cells pretreated 1 h, WNT3A 30 or 60 min, compared with dimethyl sulfoxide control
Protocol: Standard W. blot techniques were utilized and performed as previously described ([15], [43]). Briefly, cells were lysed in RIPA lysis buffer, flash frozen on dry ice, and then cleared at high speed for 10 min at maximum speed. Protein concentration was determined by a bicinchoninic acid assay following kit specifications. Samples were balanced, and NuPAGE 4× SDS loading buffer (Thermo Fisher Scientific; catalog no.: NP0007) containing DTT was added to each sample and heated for 10 min at 70 °C. Samples were run on a NuPAGE 4 to 12% Bis–Tris Protein Gel (Thermo Fisher Scientific; catalog no.: NP0321) and then transferred to a nitrocellulose membrane. The membrane was then blocked and incubated overnight with primary antibody at 4 °C with rotation, washed with Tris-buffered saline with Tween-20, incubated with secondary antibody, washed with Tris-buffered saline with Tween-20, and imaged. Images were taken using a LiCOR Odyssey CLx imager and quantified with LiCOR software (LiCOR Biosciences). All antibodies were used at a concentration of 1:1000, with the exception of loading controls, which were used at 1:10,000. […]

T1 sequence (Q9Y6M4 whole entry): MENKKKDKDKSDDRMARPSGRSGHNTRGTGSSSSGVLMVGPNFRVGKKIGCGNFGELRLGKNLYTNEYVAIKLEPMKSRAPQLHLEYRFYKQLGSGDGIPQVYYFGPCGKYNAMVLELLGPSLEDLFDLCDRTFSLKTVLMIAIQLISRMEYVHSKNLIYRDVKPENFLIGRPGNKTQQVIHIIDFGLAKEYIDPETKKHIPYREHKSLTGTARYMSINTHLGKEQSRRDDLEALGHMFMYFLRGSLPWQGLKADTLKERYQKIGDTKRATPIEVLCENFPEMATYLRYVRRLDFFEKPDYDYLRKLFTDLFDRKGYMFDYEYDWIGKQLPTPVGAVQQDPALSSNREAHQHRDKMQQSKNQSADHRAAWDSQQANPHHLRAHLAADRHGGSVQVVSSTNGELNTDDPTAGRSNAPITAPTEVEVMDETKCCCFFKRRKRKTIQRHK
Sequence of CSNK1A1L (Q8N752 whole entry): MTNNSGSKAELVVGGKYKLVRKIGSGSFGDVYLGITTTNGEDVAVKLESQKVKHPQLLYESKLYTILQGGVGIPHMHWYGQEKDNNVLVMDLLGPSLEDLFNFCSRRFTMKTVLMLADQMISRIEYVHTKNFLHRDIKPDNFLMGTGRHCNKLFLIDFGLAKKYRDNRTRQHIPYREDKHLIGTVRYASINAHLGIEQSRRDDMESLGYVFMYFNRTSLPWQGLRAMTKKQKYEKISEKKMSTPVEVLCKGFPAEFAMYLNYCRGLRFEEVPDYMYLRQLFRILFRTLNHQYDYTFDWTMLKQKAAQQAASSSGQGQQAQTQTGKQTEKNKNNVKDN
T2 sequence (P49841 whole entry): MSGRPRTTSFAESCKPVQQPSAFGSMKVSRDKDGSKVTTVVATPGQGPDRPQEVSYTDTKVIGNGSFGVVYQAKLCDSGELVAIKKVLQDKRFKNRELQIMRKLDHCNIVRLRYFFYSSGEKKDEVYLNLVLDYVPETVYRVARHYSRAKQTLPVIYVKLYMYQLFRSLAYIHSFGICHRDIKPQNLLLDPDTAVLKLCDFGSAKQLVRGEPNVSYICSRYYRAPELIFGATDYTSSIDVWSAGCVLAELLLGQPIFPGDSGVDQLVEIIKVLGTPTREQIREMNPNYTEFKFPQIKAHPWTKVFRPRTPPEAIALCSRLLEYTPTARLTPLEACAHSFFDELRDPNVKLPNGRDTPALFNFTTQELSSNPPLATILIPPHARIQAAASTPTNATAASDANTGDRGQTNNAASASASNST
T8 sequence (P49841 whole entry): as above
T5 sequence (P51617 whole entry): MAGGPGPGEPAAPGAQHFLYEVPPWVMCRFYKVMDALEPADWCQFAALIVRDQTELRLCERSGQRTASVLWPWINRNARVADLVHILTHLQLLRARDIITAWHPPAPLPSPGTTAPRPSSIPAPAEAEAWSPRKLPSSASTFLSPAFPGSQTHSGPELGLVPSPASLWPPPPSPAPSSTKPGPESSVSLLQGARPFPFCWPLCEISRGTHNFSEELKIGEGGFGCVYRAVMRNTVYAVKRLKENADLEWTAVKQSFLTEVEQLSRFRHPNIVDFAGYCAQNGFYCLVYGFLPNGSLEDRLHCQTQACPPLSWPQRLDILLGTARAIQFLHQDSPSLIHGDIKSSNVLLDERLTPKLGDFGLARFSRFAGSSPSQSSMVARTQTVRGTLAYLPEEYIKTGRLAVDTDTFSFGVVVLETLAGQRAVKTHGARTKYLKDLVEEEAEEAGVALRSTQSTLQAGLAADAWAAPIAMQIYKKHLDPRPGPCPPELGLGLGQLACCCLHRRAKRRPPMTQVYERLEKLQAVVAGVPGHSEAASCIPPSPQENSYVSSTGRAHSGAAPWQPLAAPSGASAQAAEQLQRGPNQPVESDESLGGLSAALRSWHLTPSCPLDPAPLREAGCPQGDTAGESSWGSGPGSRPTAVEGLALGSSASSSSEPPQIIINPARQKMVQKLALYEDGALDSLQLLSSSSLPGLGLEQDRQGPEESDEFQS
T7 sequence (P78368 whole entry): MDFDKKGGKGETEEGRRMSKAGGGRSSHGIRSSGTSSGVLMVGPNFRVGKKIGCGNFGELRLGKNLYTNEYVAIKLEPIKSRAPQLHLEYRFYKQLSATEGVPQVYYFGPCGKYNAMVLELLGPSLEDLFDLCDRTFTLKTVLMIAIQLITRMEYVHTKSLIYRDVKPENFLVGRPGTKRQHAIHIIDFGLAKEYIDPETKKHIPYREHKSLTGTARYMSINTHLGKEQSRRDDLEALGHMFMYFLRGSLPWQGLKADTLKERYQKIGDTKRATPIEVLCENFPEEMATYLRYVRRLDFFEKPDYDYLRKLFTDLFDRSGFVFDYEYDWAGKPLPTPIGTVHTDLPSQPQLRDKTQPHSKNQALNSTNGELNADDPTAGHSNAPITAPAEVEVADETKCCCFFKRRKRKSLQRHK
T3 sequence (P78368 whole entry): as above
T6 sequence (Q8NI60 163-647): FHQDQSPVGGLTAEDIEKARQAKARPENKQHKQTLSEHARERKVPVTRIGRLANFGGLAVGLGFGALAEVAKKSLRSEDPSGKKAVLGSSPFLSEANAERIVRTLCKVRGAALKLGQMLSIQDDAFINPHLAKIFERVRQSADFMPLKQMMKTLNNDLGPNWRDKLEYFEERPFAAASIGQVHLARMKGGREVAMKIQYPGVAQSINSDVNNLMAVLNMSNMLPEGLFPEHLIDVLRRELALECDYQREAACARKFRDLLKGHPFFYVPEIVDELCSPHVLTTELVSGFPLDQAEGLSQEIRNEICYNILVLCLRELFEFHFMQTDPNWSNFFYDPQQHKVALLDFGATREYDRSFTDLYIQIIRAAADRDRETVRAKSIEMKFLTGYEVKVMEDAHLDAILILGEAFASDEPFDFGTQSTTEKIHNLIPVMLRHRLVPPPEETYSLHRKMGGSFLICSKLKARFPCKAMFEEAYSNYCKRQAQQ
Sequence of CSNK1A1 (P48729 whole entry): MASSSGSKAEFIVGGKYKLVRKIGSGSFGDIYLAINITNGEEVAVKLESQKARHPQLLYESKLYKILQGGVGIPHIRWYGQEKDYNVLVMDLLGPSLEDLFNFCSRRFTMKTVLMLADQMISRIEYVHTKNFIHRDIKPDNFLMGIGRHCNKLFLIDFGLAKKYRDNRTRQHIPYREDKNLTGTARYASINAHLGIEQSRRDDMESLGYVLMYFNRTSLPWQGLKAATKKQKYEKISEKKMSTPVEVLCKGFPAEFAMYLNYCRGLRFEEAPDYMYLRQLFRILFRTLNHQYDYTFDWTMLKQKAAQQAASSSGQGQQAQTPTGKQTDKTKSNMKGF

COc1cnc(COc2ccc(F)c(F)c2)cc1-c1cc2c([nH]1)CCNC2=O [FP1-24-2, 2-(2-((3,4-difluorophenoxy)methyl)-5-methoxypyridin-4-yl)-1,5,6,7-tetrahydro-4H-pyrrolo[3,2-c]pyridin-4-one]
IC50 (CK1γ3): < 15 nM and 14 nM
GSK3β PoC @ 1 µM (GSK3β): did not inhibit
remaining binding at 1 µM (CK1γ2): 4.3%
remaining binding at 1000 µM (DYRK1A): 0.1%
remaining binding at 1 µM (IRAK1): 1.1%
remaining binding at 1 µM (CSNK1A1): 3.1%
remaining binding at 1 µM (ADCK3): 5.4%
remaining binding at 1 µM (CSNK1A1L): 5.9%
IC50 (CK1γ2 (NLuc-CK1γ2)): 10.7 nM
IC50 (GSK3β (NLuc-GSK3β)): > 10 µM
β-catenin stabilization (β-catenin): diminished
